Experiments:
[1] = tested on: bovine liver alkaline phosphatase; experiment: Accelerated stability in various pH 9.8 buffers at 45° C.; functional inhibitor measured by inhibition of bovine liver alkaline phosphatase; type: physicochemical; conditions: for Percent of Functional Levamisole Remaining: 45° C., Day 0
Description: Various buffers were prepared at 100 mM concentrations, containing 1 mM magnesium chloride, and adjusted to pH 9.8. […] (accelerated decomposition study). […] Bovine liver AP was added and the reaction kinetics were followed at 405 nm.

[2] = tested on: bovine liver alkaline phosphatase; experiment: Potency as alkaline phosphatase inhibitor relative to levamisole; type: biochemical
[3] = tested on: AP from the intestine; conditions: intestinal versus nonintestinal AP; cited from earlier work
[4] = tested on: AP from several mammalian tissue types; conditions: cited from earlier work
[5] = pH 7.9 versus pH 2; cited from earlier work

Percent of Functional Levamisole Remaining ([1]; AMP buffer, pH 9.8, 0.1 mM p-bromolevamisole)	Percent of Functional Levamisole Remaining ([1]; AMPD buffer, pH 9.8, 0.1 mM p-bromolevamisole)	Percent of Functional Levamisole Remaining ([1]; Carbonate buffer, pH 9.8, 0.1 mM p-bromolevamisole)	Percent of Functional Levamisole Remaining ([1]; Diethanolamine buffer, pH 9.8, 0.1 mM p-bromolevamisole)	Percent of Functional Levamisole Remaining ([1]; Glycine buffer, pH 9.8, 0.1 mM p-bromolevamisole)	Percent of Functional Levamisole Remaining ([1]; Triethanolamine buffer, pH 9.8, 0.1 mM p-bromolevamisole)	decomposition compared with the parent compound (levamisole) ([1]; pH 9.8, 45° C.)	more potent than levamisole [2]	Compound	Percent of Functional Levamisole Remaining ([1]; AMP buffer 100 mM, 1 mM magnesium chloride, pH 9.8, 1 mM levamisole)	Percent of Functional Levamisole Remaining ([1]; AMPD buffer 100 mM, 1 mM magnesium chloride, pH 9.8, 1 mM levamisole)	Percent of Functional Levamisole Remaining ([1]; Carbonate buffer 100 mM, 1 mM magnesium chloride, pH 9.8, 1 mM levamisole)	Percent of Functional Levamisole Remaining ([1]; Diethanolamine buffer 100 mM, 1 mM magnesium chloride, pH 9.8, 1 mM levamisole)	Percent of Functional Levamisole Remaining ([1]; Glycine buffer 100 mM, 1 mM magnesium chloride, pH 9.8, 1 mM levamisole)	Percent of Functional Levamisole Remaining ([1]; Triethanolamine buffer 100 mM, 1 mM magnesium chloride, pH 9.8, 1 mM levamisole)	stability in AMPD and particularly in AMP compared with other buffers ([1]; pH 9.8, 45° C.)	less potent toward AP from the intestine than toward AP from several mammalian tissue types [3]	inhibition of AP from several mammalian tissue types [4]	decomposed faster at pH 7.9 than at pH 2 [5]
100%	100%	100%	100%	100%	100%	quite a bit faster	approximately 10 fold	Brc1ccc([C@H]2CN3CCSC3=N2)cc1 [p-bromolevamisole]	–	–	–	–	–	–	–	–	–	–
–	–	–	–	–	–	–	–	c1ccc([C@H]2CN3CCSC3=N2)cc1 [levamisole, (-)2,3,5,6-tetrahydro-6-phenylimidazo[1,2-b]thiazole]	100%	100%	100%	100%	100%	100%	substantially greater	approximately 100 fold	potent inhibitor	70 times
